This note sets out measurements from PubChem BioAssay AID256 (DTP/NCI, 2004).

The assay relates to CD2F1 mice, L1210 leukemia ip, survival T/C. The assay is described as follows: NCI In Vivo Anticancer Drug Screen. Data for tumor model L1210 Leukemia (intraperitoneal) in CD2F1 (CDF1) mice. The following applies: higher = longer survival. In short, it runs like this:
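Read-out first: treated-group measurement over vehicle-control measurement, expressed as a ratio. Animals bore a transplanted tumor line and were dosed with compound or vehicle.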

Where [1] appears, read: endpoint: mean survival time, dose: 100.0 mg/kg/injection, schedule: Q04DX003 (ip), vehicle: saline with Tween-80.
Where [2] appears, read: endpoint: mean survival time, dose: 400.0 mg/kg/injection, schedule: Q04DX003 (ip), vehicle: saline with Tween-80.
Setting [3] is: endpoint: mean survival time, dose: 100.0 mg/kg/injection, schedule: Q01DX009 (ip), vehicle: saline with Tween-80.
[4] abbreviates: endpoint: mean survival time, dose: 200.0 mg/kg/injection, schedule: Q04DX003 (ip), vehicle: saline with Tween-80.
Setting [5] is: endpoint: mean survival time, dose: 200.0 mg/kg/injection, schedule: Q01DX009 (ip), vehicle: saline with Tween-80.
The mark [6] stands for this setting: endpoint: mean survival time, dose: 400.0 mg/kg/injection, schedule: Q01DX009 (ip), vehicle: saline with Tween-80.

Where “and” joins values, the source holds several entries; their conditions need not be identical. Equal values may be shown once. Inconclusive results and toxic doses are left out.

Turning to `NCCCNCCCCNC(=O)C(O)NC(=O)CCCCCCN=C(N)N` (configuration not stated), the T/C by setting is: (endpoint: median survival time, dose: 0.19 mg/kg/injection, schedule: Q01DX005 (iv), vehicle: saline) 123 % of control; (endpoint: median survival time, dose: 0.39 mg/kg/injection, schedule: Q01DX009 (ip), vehicle: saline) 185 % of control and 231 % of control; (endpoint: median survival time, dose: 0.75 mg/kg/injection, schedule: Q01DX009 (ip), vehicle: saline) 198 % of control; (endpoint: median survival time, dose: 0.78 mg/kg/injection, schedule: Q01DX005 (iv), vehicle: other) 153 % of control; (endpoint: median survival time, dose: 0.78 mg/kg/injection, schedule: Q01DX005 (iv), vehicle: saline) 156 % of control; (endpoint: median survival time, dose: 0.78 mg/kg/injection, schedule: Q01DX009 (ip), vehicle: other) 213 % of control. Further, the T/C (endpoint: median survival time, dose: 1.3 mg/kg/injection, schedule: Q01DX005 (iv), vehicle: other) was 153 % of control; the T/C (endpoint: median survival time, dose: 1.3 mg/kg/injection, schedule: Q01DX005 (iv), vehicle: saline) is 161 % of control; the T/C (endpoint: median survival time, dose: 1.5 mg/kg/injection, schedule: Q01DX009 (ip), vehicle: saline) was 220 % of control; the T/C (endpoint: median survival time, dose: 1.56 mg/kg/injection, schedule: Q01DX005 (iv), vehicle: saline) is 160 % of control; the T/C (endpoint: median survival time, dose: 1.56 mg/kg/injection, schedule: Q01DX009 (ip), vehicle: other) is 213 % of control; the T/C (endpoint: median survival time, dose: 2.16 mg/kg/injection, schedule: Q01DX005 (iv), vehicle: other) is 171 % of control. Also, the T/C is, setting by setting: (endpoint: median survival time, dose: 2.16 mg/kg/injection, schedule: Q01DX005 (iv), vehicle: saline) 165 % of control; (endpoint: median survival time, dose: 3.0 mg/kg/injection, schedule: Q01DX009 (ip), vehicle: saline) 220 % of control; (endpoint: median survival time, dose: 3.12 mg/kg/injection, schedule: Q01DX005 (iv), vehicle: saline) 172 % of control; (endpoint: median survival time, dose: 3.12 mg/kg/injection, schedule: Q01DX009 (ip), vehicle: other) 204 % of control; (endpoint: median survival time, dose: 3.6 mg/kg/injection, schedule: Q01DX005 (iv), vehicle: other) 176 % of control; (endpoint: median survival time, dose: 3.6 mg/kg/injection, schedule: Q01DX005 (iv), vehicle: saline) 164 % of control. The T/C by setting is: (endpoint: median survival time, dose: 4.4 mg/kg/injection, schedule: Q01DX009 (ip), vehicle: saline) 221 % of control and 225 % of control and 230 % of control; (endpoint: median survival time, dose: 4.5 mg/kg/injection, schedule: Q01DX009 (ip), vehicle: saline) 219 % of control; (endpoint: median survival time, dose: 6.0 mg/kg/injection, schedule: Q01DX005 (iv), vehicle: other) 175 % of control; (endpoint: median survival time, dose: 6.0 mg/kg/injection, schedule: Q01DX005 (iv), vehicle: saline) 172 % of control; (endpoint: median survival time, dose: 6.0 mg/kg/injection, schedule: Q01DX009 (ip), vehicle: saline) 219 % of control; (endpoint: median survival time, dose: 6.25 mg/kg/injection, schedule: Q01DX005 (iv), vehicle: saline) 430 % of control. Moreover, the T/C by setting is: (endpoint: median survival time, dose: 6.25 mg/kg/injection, schedule: Q01DX009 (ip), vehicle: other) 225 % of control; (endpoint: median survival time, dose: 7.88 mg/kg/injection, schedule: Q01DX005 (sc), vehicle: water) 163 % of control; (endpoint: median survival time, dose: 10.0 mg/kg/injection, schedule: Q01DX005 (iv), vehicle: saline) 180 % of control; (endpoint: median survival time, dose: 12.0 mg/kg/injection, schedule: Q01DX009 (ip), vehicle: saline) 223 % of control; (endpoint: median survival time, dose: 12.5 mg/kg/injection, schedule: Q01DX009 (ip), vehicle: other) 242 % of control; (endpoint: median survival time, dose: 15.75 mg/kg/injection, schedule: Q01DX005 (sc), vehicle: water) 173 % of control and 179 % of control. Further, the T/C was 227 % of control (endpoint: median survival time, dose: 25.0 mg/kg/injection, schedule: Q01DX009 (ip), vehicle: other); 178 % of control and 182 % of control (endpoint: median survival time, dose: 31.5 mg/kg/injection, schedule: Q01DX005 (sc), vehicle: water); 164 % of control (endpoint: median survival time, dose: 31.5 mg/kg/injection, schedule: Q03HX008 (sc), vehicle: water); 183 % of control (endpoint: median survival time, dose: 37.0 mg/kg/injection, schedule: Q01DX005 (sc), vehicle: water); 176 % of control (endpoint: median survival time, dose: 45.0 mg/kg/injection, schedule: Q01DX005 (sc), vehicle: water); 182 % of control (endpoint: median survival time, dose: 150.0 micrograms per hour, schedule: Q#X X048 (sc), vehicle: water). In addition, the T/C is 182 % of control (endpoint: median survival time, dose: 150.0 micrograms per hour, schedule: Q#X X072 (sc), vehicle: water); 205 % of control (endpoint: median survival time, dose: 150.0 micrograms per hour, schedule: Q#X X096 (sc), vehicle: water); 178 % of control (endpoint: median survival time, dose: 170.0 micrograms per hour, schedule: Q#X X048 (sc), vehicle: water); 200 % of control (endpoint: median survival time, dose: 170.0 micrograms per hour, schedule: Q#X X072 (sc), vehicle: water); 110 % of control (endpoint: median survival time, dose: 200.0 micrograms per hour, schedule: Q#X X048 (sc), vehicle: water); 101 % of control (endpoint: median survival time, dose: 200.0 micrograms per hour, schedule: Q#X X072 (sc), vehicle: water). Besides, the T/C (endpoint: median survival time, dose: 200.0 micrograms per hour, schedule: Q#X X096 (sc), vehicle: water) was 114 % of control; the T/C (endpoint: median survival time, dose: 207.0 micrograms per hour, schedule: Q#X X048 (sc), vehicle: water) was 168 % of control; the T/C (endpoint: median survival time, dose: 207.0 micrograms per hour, schedule: Q#X X072 (sc), vehicle: water) is 120 % of control; the T/C (endpoint: median survival time, dose: 207.0 micrograms per hour, schedule: Q#X X096 (sc), vehicle: water) is 109 % of control.

On to `CCOC1(c2ccccc2)c2ccccc2C(C)(C)c2ccccc21`, for which the T/C by setting is: under setting [1], 92 % of control; under setting [2], 92 % of control.

For `CC(C)CC#N`, the T/C under setting [3] is 100 % of control, the T/C under setting [1] is 101 % of control, the T/C under setting [4] is 104 % of control and the T/C under setting [2] is 104 % of control.

As to `CN(C)CCNc1ccc(O)c2c1C(=O)c1ccccc1C2=O`, the T/C is 94 % of control (endpoint: mean survival time, dose: 10.0 mg/kg/injection, schedule: Q01DX009 (ip), vehicle: saline with Tween-80); 90 % of control (endpoint: mean survival time, dose: 20.0 mg/kg/injection, schedule: Q01DX009 (ip), vehicle: saline with Tween-80); 107 % of control (endpoint: mean survival time, dose: 40.0 mg/kg/injection, schedule: Q01DX009 (ip), vehicle: saline with Tween-80); 122 % of control (endpoint: mean survival time, dose: 80.0 mg/kg/injection, schedule: Q01DX009 (ip), vehicle: saline with Tween-80).

Regarding `FC1(F)C2Cc3ccccc3C2C1(Cl)Cl` (configuration not stated), the T/C reads like this: (endpoint: mean survival time, dose: 75.0 mg/kg/injection, schedule: Q01DX001 (ip), vehicle: saline) 103 % of control; (endpoint: mean survival time, dose: 150.0 mg/kg/injection, schedule: Q01DX001 (ip), vehicle: saline) 101 % of control; (endpoint: mean survival time, dose: 300.0 mg/kg/injection, schedule: Q01DX001 (ip), vehicle: saline) 100 % of control.

For the molecule `CCOC(=O)CN1CC(=O)Nc2ccccc21`, the T/C was 95 % of control under setting [1], 98 % of control under setting [4] and 111 % of control under setting [2].

Turning to `Clc1nc(Cl)nc(-c2cn(-c3ccccc3)c3ccccc23)n1`, the T/C is 95 % of control under setting [3]; 89 % of control under setting [1]; 95 % of control under setting [5]; 97 % of control under setting [4]; 96 % of control under setting [6]; 98 % of control under setting [2].

In the case of `O=C(NNc1cccc(Cl)c1)C(O)C(O)C(O)C(O)CO` (configuration not stated), the T/C runs as follows: (endpoint: mean survival time, dose: 50.0 mg/kg/injection, schedule: Q01DX009 (ip), vehicle: saline) 93 % of control; (endpoint: mean survival time, dose: 100.0 mg/kg/injection, schedule: Q01DX009 (ip), vehicle: saline) 108 % of control; (endpoint: mean survival time, dose: 200.0 mg/kg/injection, schedule: Q01DX009 (ip), vehicle: saline) 96 % of control.

On to `COC1OC(CO)C(OC)C(OC)C1NC(C)=O` (configuration not stated), for which the T/C (endpoint: mean survival time, dose: 100.0 mg/kg/injection, schedule: Q01DX001 (ip), vehicle: saline + alcohol) is 101 % of control; the T/C (endpoint: mean survival time, dose: 200.0 mg/kg/injection, schedule: Q01DX001 (ip), vehicle: saline + alcohol) is 103 % of control; the T/C (endpoint: mean survival time, dose: 400.0 mg/kg/injection, schedule: Q01DX001 (ip), vehicle: saline + alcohol) is 97 % of control.

With `O=c1[nH]c(=S)nc2nc[nH]n12`, the T/C by setting is: (endpoint: mean survival time, dose: 12.5 mg/kg/injection, schedule: Q01DX001 (ip), vehicle: carboxymethylcellulose (CMC)) 97 % of control; (endpoint: mean survival time, dose: 25.0 mg/kg/injection, schedule: Q01DX001 (ip), vehicle: carboxymethylcellulose (CMC)) 100 % of control; (endpoint: mean survival time, dose: 50.0 mg/kg/injection, schedule: Q01DX001 (ip), vehicle: carboxymethylcellulose (CMC)) 104 % of control; (endpoint: mean survival time, dose: 100.0 mg/kg/injection, schedule: Q01DX001 (ip), vehicle: carboxymethylcellulose (CMC)) 97 % of control; (endpoint: mean survival time, dose: 200.0 mg/kg/injection, schedule: Q01DX001 (ip), vehicle: carboxymethylcellulose (CMC)) 97 % of control.

As for `O=C(O)C(Br)C(Br)c1ccccc1` (configuration not stated), the T/C is, setting by setting: under setting [3], 92 % of control; under setting [5], 93 % of control; under setting [6], 93 % of control.
